According to patent US5093231A, “Substrate composition for alkaline phosphatase and method for assay using same” (Becton, Dickinson and Company, priority 1991, dated 1992):
Each block holds one molecule with its values, some of them ahead of it.

Key:
[1] = Accelerated stability of levamisole (and its p-bromo analogue) in various buffers; functional amount measured by inhibition of bovine liver AP; conditions: pH 9.8
Description: (§1) Various buffers were prepared at 100 mM concentrations, containing 1 mM magnesium chloride, and adjusted to pH 9.8. […] (accelerated decomposition study). […] Bovine liver AP was added and the reaction kinetics were followed at 405 nm.

[2] = test system: bovine liver alkaline phosphatase; assay: as above; conditions: for Percent of Functional Levamisole Remaining: Day 0
Description: as §1

AP from the intestine = conditions: Van Belle, Biochim. et Biophys. Acta., 289, 158 (1972); cited from earlier work
[3] = cited from earlier work
[4] = test system: bovine liver alkaline phosphatase; assay: Potency of the p-bromo analogue relative to levamisole as AP inhibitor; type: biochemical

SMILES: c1ccc([C@H]2CN3CCSC3=N2)cc1 [levamisole, (-)2,3,5,6-tetrahydro-6-phenylimidazo[1,2-b]thiazole]
remaining at 72 h, 1000 µM ([1]; amp buffer): 118%
remaining at 216 h, 1000 µM ([1]; amp buffer): 107%
remaining at 408 h, 1000 µM ([1]; amp buffer): 87.1%
remaining at 72 h, 1000 µM ([1]; ampd buffer): 110%
remaining at 216 h, 1000 µM ([1]; ampd buffer): 90.2%
remaining at 408 h, 1000 µM ([1]; ampd buffer): 71.7%
remaining at 72 h, 1000 µM ([1]; carbonate buffer): 63.8%
remaining at 216 h, 1000 µM ([1]; carbonate buffer): 32.1%
remaining at 408 h, 1000 µM ([1]; carbonate buffer): 13.7%
remaining at 72 h, 1000 µM ([1]; diethanolamine buffer): 79.8%
remaining at 216 h, 1000 µM ([1]; diethanolamine buffer): 9.12%
remaining at 408 h, 1000 µM ([1]; diethanolamine buffer): 0.31%
remaining at 72 h, 1000 µM ([1]; glycine buffer): 0.08%
remaining at 216 h, 1000 µM ([1]; glycine buffer): 0.02%
remaining at 408 h, 1000 µM ([1]; glycine buffer): 0%
remaining at 72 h, 1000 µM ([1]; triethanolamine buffer): 94.4%
remaining at 216 h, 1000 µM ([1]; triethanolamine buffer): 66.6%
remaining at 408 h, 1000 µM ([1]; triethanolamine buffer): 37.6%
Percent of Functional Levamisole Remaining ([2]; AMP buffer 100 mM, 1 mM magnesium chloride, pH 9.8, 45° C., 1 mM levamisole): 100%
Percent of Functional Levamisole Remaining ([2]; AMPD buffer 100 mM, 1 mM magnesium chloride, pH 9.8, 45° C., 1 mM levamisole): 100%
Percent of Functional Levamisole Remaining ([2]; Carbonate buffer 100 mM, 1 mM magnesium chloride, pH 9.8, 45° C., 1 mM levamisole): 100%
Percent of Functional Levamisole Remaining ([2]; Diethanolamine buffer 100 mM, 1 mM magnesium chloride, pH 9.8, 45° C., 1 mM levamisole): 100%
Percent of Functional Levamisole Remaining ([2]; Glycine buffer 100 mM, 1 mM magnesium chloride, pH 9.8, 45° C., 1 mM levamisole): 100%
Percent of Functional Levamisole Remaining ([2]; Triethanolamine buffer 100 mM, 1 mM magnesium chloride, pH 9.8, 45° C., 1 mM levamisole): 100%
stability of levamisole compared between buffers ([2]; pH 9.8, 45° C., summary of Table I): substantially greater in AMPD and particularly in AMP than in other buffers
fold less potent toward AP from the intestine than toward AP from several mammalian tissue types (AP from the intestine): approximately 100 fold
decomposition rate at pH 7.9 relative to pH 2 ([3]; elevated temperature, Dickinson et al., Analyst, 96, 248 (1971)): 70 times
pH of solution at which levamisole hydrolyzes ([3]; in solution): ≥ 4

remaining at 72 h, 100 µM ([1]; amp buffer): 55.4%
remaining at 216 h, 100 µM ([1]; amp buffer): 23.9%
remaining at 408 h, 100 µM ([1]; amp buffer): 9.6%
remaining at 72 h, 100 µM ([1]; ampd buffer): 74%
remaining at 216 h, 100 µM ([1]; ampd buffer): 37.3%
remaining at 408 h, 100 µM ([1]; ampd buffer): 18.5%
remaining at 72 h, 100 µM ([1]; carbonate buffer): 44.4%
remaining at 216 h, 100 µM ([1]; carbonate buffer): 10.8%
remaining at 408 h, 100 µM ([1]; carbonate buffer): 2.62%
remaining at 72 h, 100 µM ([1]; diethanolamine buffer): 33.6%
remaining at 216 h, 100 µM ([1]; diethanolamine buffer): 1.3%
remaining at 408 h, 100 µM ([1]; diethanolamine buffer): 0.53%
remaining at 72 h, 100 µM ([1]; glycine buffer): 0.29%
remaining at 216 h, 100 µM ([1]; glycine buffer): 0.25%
remaining at 408 h, 100 µM ([1]; glycine buffer): 0%
remaining at 72 h, 100 µM ([1]; triethanolamine buffer): 59%
remaining at 216 h, 100 µM ([1]; triethanolamine buffer): 22.1%
remaining at 408 h, 100 µM ([1]; triethanolamine buffer): 7.86%
Percent of Functional Levamisole Remaining ([2]; AMP buffer, as in Example I (pH 9.8, 45° C.), 0.1 mM p-bromolevamisole): 100%
Percent of Functional Levamisole Remaining ([2]; AMPD buffer, as in Example I (pH 9.8, 45° C.), 0.1 mM p-bromolevamisole): 100%
Percent of Functional Levamisole Remaining ([2]; Carbonate buffer, as in Example I (pH 9.8, 45° C.), 0.1 mM p-bromolevamisole): 100%
Percent of Functional Levamisole Remaining ([2]; Diethanolamine buffer, as in Example I (pH 9.8, 45° C.), 0.1 mM p-bromolevamisole): 100%
Percent of Functional Levamisole Remaining ([2]; Glycine buffer, as in Example I (pH 9.8, 45° C.), 0.1 mM p-bromolevamisole): 100%
Percent of Functional Levamisole Remaining ([2]; Triethanolamine buffer, as in Example I (pH 9.8, 45° C.), 0.1 mM p-bromolevamisole): 100%
fold more potent than levamisole [4]: approximately 10 fold
SMILES: Brc1ccc([C@H]2CN3CCSC3=N2)cc1 [p-bromolevamisole]
decomposition compared with the parent compound levamisole ([2]; pH 9.8, 45° C., summary of Table II): quite a bit faster than the parent compound
